Tested on: 422866-222-R5-J1-PDC spheroid viability
Assay: Anticancer human tumor 422866-222-R5-J1-PDC patient-derived pancreatic adenocarcinoma cell line growth inhibition [CLK]
Conditions: spheroids with HUVEC and MSC; for IC50: curve of first compound; for viability, T/C: stronger effect = lower value; active = viability on the fitted dose curve at most 10% of control; inactive = the rest
Procedure, shortened: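 Multi-cell-type spheroids combined patient-derived tumor cells with HUVEC endothelial cells and human mesenchymal stem cells. Paired agents were dosed in half-log steps down from about clinical Cmax, or from 10 microM where Cmax was unknown.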

[1] = second compound 0.0316 µM, first compound 0.0316 µM
[2] = second compound 0.0316 µM, first compound 0.1 µM
[3] = second compound 0.1 µM, first compound 0.0316 µM
[4] = second compound 0.1 µM, first compound 0.1 µM
[5] = second compound 0.316 µM, first compound 0.0316 µM
[6] = second compound 0.316 µM, first compound 0.1 µM
[7] = second compound 1 µM, first compound 0.0316 µM
[8] = second compound 1 µM, first compound 0.1 µM
[9] = second compound 3.16 µM, first compound 0.0316 µM
[10] = second compound 3.16 µM, first compound 0.1 µM
[11] = second compound 10 µM, first compound 0.0316 µM
[12] = second compound 10 µM, first compound 0.1 µM
[13] = second compound 0.0316 µM, first compound 0.316 µM
[14] = second compound 0.0316 µM, first compound 1 µM
[15] = second compound 0.0316 µM, first compound 3.16 µM
[16] = second compound 0.0316 µM, first compound 10 µM
[17] = second compound 0.1 µM, first compound 0.316 µM
[18] = second compound 0.1 µM, first compound 1 µM
[19] = second compound 0.1 µM, first compound 3.16 µM
[20] = second compound 0.1 µM, first compound 10 µM
[21] = second compound 0.316 µM, first compound 0.316 µM
[22] = second compound 0.316 µM, first compound 1 µM
[23] = second compound 0.316 µM, first compound 3.16 µM
[24] = second compound 0.316 µM, first compound 10 µM
[25] = second compound 1 µM, first compound 0.316 µM
[26] = second compound 1 µM, first compound 1 µM
[27] = second compound 1 µM, first compound 3.16 µM
[28] = second compound 1 µM, first compound 10 µM
[29] = second compound 3.16 µM, first compound 0.316 µM
[30] = second compound 3.16 µM, first compound 1 µM
[31] = second compound 3.16 µM, first compound 3.16 µM
[32] = second compound 3.16 µM, first compound 10 µM
[33] = second compound 10 µM, first compound 0.316 µM
[34] = second compound 10 µM, first compound 1 µM
[35] = second compound 10 µM, first compound 3.16 µM
[36] = second compound 10 µM, first compound 10 µM
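Also: spheroids exposed to agents for seven days before readout.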

Cn1ncnc1[C@H]1c2n[nH]c(=O)c3cc(F)cc(c23)N[C@@H]1c1ccc(F)cc1 + CN1CCN(c2cc(C(=O)Nc3cc4cc(-c5cnn(C)c5)ccc4cn3)ccn2)CC1
> 0.1 µM: IC50 (second compound 0.0316 µM) | IC50 (second compound 0.1 µM) | IC50 (second compound 0.316 µM)
< 0.000316 µM: IC50 (second compound 1 µM) | IC50 (second compound 3.16 µM) | IC50 (second compound 10 µM)
inactive: viability, T/C (second compound 0.0316 µM, first compound 0.000316 µM) 92.9% | viability, T/C (second compound 0.0316 µM, first compound 0.001 µM) 112% | viability, T/C (second compound 0.0316 µM, first compound 0.00316 µM) 106% | viability, T/C (second compound 0.0316 µM, first compound 0.01 µM) 102% | viability, T/C [1] 96% | viability, T/C [2] 87.3% | viability, T/C (second compound 0.1 µM, first compound 0.000316 µM) 126% | viability, T/C (second compound 0.1 µM, first compound 0.001 µM) 114% | viability, T/C (second compound 0.1 µM, first compound 0.00316 µM) 113% | viability, T/C (second compound 0.1 µM, first compound 0.01 µM) 97.2% | viability, T/C [3] 90% | viability, T/C [4] 80.1% | viability, T/C (second compound 0.316 µM, first compound 0.000316 µM) 99.3% | viability, T/C (second compound 0.316 µM, first compound 0.001 µM) 96.3% | viability, T/C (second compound 0.316 µM, first compound 0.00316 µM) 85.8% | viability, T/C (second compound 0.316 µM, first compound 0.01 µM) 75.8% | viability, T/C [5] 81.7% | viability, T/C [6] 71.9% | viability, T/C (second compound 1 µM, first compound 0.000316 µM) 24% | viability, T/C (second compound 1 µM, first compound 0.001 µM) 22.9% | viability, T/C (second compound 1 µM, first compound 0.00316 µM) 19% | viability, T/C (second compound 1 µM, first compound 0.01 µM) 22.3% | viability, T/C [7] 22.3% | viability, T/C [8] 18.7%
active: viability, T/C (second compound 3.16 µM, first compound 0.000316 µM) 7.18% | viability, T/C (second compound 3.16 µM, first compound 0.001 µM) 10.9% | viability, T/C (second compound 3.16 µM, first compound 0.00316 µM) 8.25% | viability, T/C (second compound 3.16 µM, first compound 0.01 µM) 7.82% | viability, T/C [9] 7.43% | viability, T/C [10] 10.8% | viability, T/C (second compound 10 µM, first compound 0.000316 µM) 1.01% | viability, T/C (second compound 10 µM, first compound 0.001 µM) 2.31% | viability, T/C (second compound 10 µM, first compound 0.00316 µM) 1.8% | viability, T/C (second compound 10 µM, first compound 0.01 µM) 0.75% | viability, T/C [11] 3.12% | viability, T/C [12] 2.33%

CC1COCCN1c1cc(C2(S(C)(=N)=O)CC2)nc(-c2ccnc3[nH]ccc23)n1 (stereo not drawn) + CN1CCN(c2cc(C(=O)Nc3cc4cc(-c5cnn(C)c5)ccc4cn3)ccn2)CC1
inactive: viability, T/C [1] 112% | viability, T/C [2] 104% | viability, T/C [13] 93.6% | viability, T/C [14] 89.3% | viability, T/C [15] 56% | viability, T/C [16] 55.6% | viability, T/C [3] 115% | viability, T/C [4] 95.7% | viability, T/C [17] 113% | viability, T/C [18] 74.3% | viability, T/C [19] 60.2% | viability, T/C [20] 61.2% | viability, T/C [5] 95% | viability, T/C [6] 85.8% | viability, T/C [21] 79.9% | viability, T/C [22] 73.2% | viability, T/C [23] 61.2% | viability, T/C [24] 56.2% | viability, T/C [7] 30.9% | viability, T/C [8] 26.6% | viability, T/C [25] 27.7% | viability, T/C [26] 21.6% | viability, T/C [27] 23.8% | viability, T/C [28] 17.5% | viability, T/C [9] 10.7% | viability, T/C [10] 10.4% | viability, T/C [29] 11.6% | viability, T/C [30] 10.4% | viability, T/C [31] 10.6% | viability, T/C [32] 10.2%
active: viability, T/C [11] 2.45% | viability, T/C [12] 2.21% | viability, T/C [33] 1.54% | viability, T/C [34] 2.27% | viability, T/C [35] 4.47% | viability, T/C [36] 2.46%
< 0.0316 µM: IC50 (second compound 1 µM) | IC50 (second compound 3.16 µM) | IC50 (second compound 10 µM)
> 10 µM: IC50 (second compound 0.0316 µM) | IC50 (second compound 0.1 µM) | IC50 (second compound 0.316 µM)

Nc1ccccc1NC(=O)c1ccc(CNC(=O)OCc2cccnc2)cc1 + CNC(=O)c1ccc(Nc2nc(OC3CCCC3)c3c(-c4ccc5nc(C)oc5c4)c[nH]c3n2)c(OC)c1
inactive: viability, T/C [1] 115% | viability, T/C [2] 121% | viability, T/C [13] 157% | viability, T/C [14] 90% | viability, T/C [15] 68.7% | viability, T/C [16] 74.7% | viability, T/C [3] 106% | viability, T/C [4] 116% | viability, T/C [17] 114% | viability, T/C [18] 99.8% | viability, T/C [19] 77.9% | viability, T/C [20] 79.2% | viability, T/C [5] 82.5% | viability, T/C [6] 76.5% | viability, T/C [21] 77% | viability, T/C [22] 80.8% | viability, T/C [23] 64.5% | viability, T/C [24] 50.9% | viability, T/C [7] 75.1% | viability, T/C [8] 67.6% | viability, T/C [25] 69.1% | viability, T/C [26] 60.8% | viability, T/C [27] 58.5% | viability, T/C [28] 39.1% | viability, T/C [9] 65.7% | viability, T/C [10] 60.2% | viability, T/C [29] 77.6% | viability, T/C [30] 76.2% | viability, T/C [31] 60.6% | viability, T/C [32] 49.6% | viability, T/C [11] 67.2% | viability, T/C [12] 60.6% | viability, T/C [33] 71.9% | viability, T/C [34] 61.2% | viability, T/C [35] 67.3% | viability, T/C [36] 48.1%
4.64 µM: IC50 (second compound 1 µM)
> 10 µM: IC50 (second compound 0.0316 µM) | IC50 (second compound 0.1 µM) | IC50 (second compound 0.316 µM) | IC50 (second compound 3.16 µM) | IC50 (second compound 10 µM)

O=C(c1cc(Cc2n[nH]c(=O)c3ccccc23)ccc1F)N1CCN(C(=O)C2CC2)CC1 + CN1CCN(c2cc(C(=O)Nc3cc4cc(-c5cnn(C)c5)ccc4cn3)ccn2)CC1
< 0.0316 µM: IC50 (second compound 1 µM) | IC50 (second compound 3.16 µM) | IC50 (second compound 10 µM)
inactive: viability, T/C [1] 120% | viability, T/C [2] 112% | viability, T/C [13] 112% | viability, T/C [14] 125% | viability, T/C [15] 102% | viability, T/C [16] 84.1% | viability, T/C [3] 122% | viability, T/C [4] 105% | viability, T/C [17] 109% | viability, T/C [18] 98.7% | viability, T/C [19] 95% | viability, T/C [20] 88.4% | viability, T/C [5] 96.8% | viability, T/C [6] 82.2% | viability, T/C [21] 87.2% | viability, T/C [22] 85.5% | viability, T/C [23] 83.7% | viability, T/C [24] 74.8% | viability, T/C [7] 26.2% | viability, T/C [8] 24.4% | viability, T/C [25] 23.4% | viability, T/C [26] 22.4% | viability, T/C [27] 28.3% | viability, T/C [28] 25.2% | viability, T/C [9] 10.1% | viability, T/C [10] 11.2% | viability, T/C [29] 9.98% | viability, T/C [30] 8.62% | viability, T/C [31] 9.42% | viability, T/C [32] 12.3%
active: viability, T/C [11] 1.86% | viability, T/C [12] 1.82% | viability, T/C [33] 2.14% | viability, T/C [34] 2.42% | viability, T/C [35] 3.13% | viability, T/C [36] 2.42%
> 10 µM: IC50 (second compound 0.0316 µM) | IC50 (second compound 0.1 µM) | IC50 (second compound 0.316 µM)
